According to patent US20170215424A1 (SUMITOMO CHEMICAL COMPANY, LIMITED, priority 2014, published 2017):

Key:
Assay type in all cases: in vivo
Blattella germanica = test: Test Example 1: spray knockdown test on Blattella germanica; details: 0.25 h, 10 vermin, oil solution 2.0% w/v, 1.5 ml sprayed, within 15 minutes, read-out: knockdown ratio of test vermin within 15 minutes
Procedure: (§1) A formulation containing each of the present amide compounds (1), (2), (4), (8), (12), (13), (14), (15), (16), (18), (20), (24), (25), (27) and (28) prepared in accordance with Formulation Example 7 was diluted with an isopropyl alcohol/deodorized kerosine=1/9 mixed liquid so that the active ingredient concentration became 2.0% w/v, to prepare a drug solution for a test.
Ten vermin of Blattella germanica (male female each five vermin) were allowed to release in a container for a test in which a butter was applied on an inner wall (diameter 8.75 cm, height 7.5 cm, bottom face covered with 16 mesh wire net), and the container was arranged on a bottom of a chamber for a test (bottom surface: 46 cm×46 cm, height: 70 cm). From a height of 60 cm from an upper side of the container, 1.5 ml of the drug solution for a test was sprayed using a spray gun (spraying pressure 0.42 kg/cm^2). Thirty seconds after spraying, the container was taken out from the chamber for a test, the number of vermin which had been knocked down was counted for 15 minutes with time, and a knockdown ratio was obtained. The knockdown ratio was calculated by the following expression.
(§2) Knockdown ratio (%)=(number of knocked down vermin/number of test vermin)×100

Culexpipienspallens = test: Test Example 3: spray knockdown test on Culexpipienspallens imagoes; details: 0.25 h, oil solution 0.1% w/v, 0.5 ml sprayed, within 15 minutes, read-out: knockdown ratio of the test vermin within 15 minutes
Procedure: as §1, with “(4), (5), (6), (7),” for “(4),”, “(8), (9), (10),” for “(8),”, “(19), (21), (22),” for “(20),”, “(25), (26) and” for “(25),”, “(27)” for “(27) and (28)”, “0.1%” for “2.0%”
Ten imagoes of Culexpipienspallens were allowed to release in a polyethylene cup (bottom surface diameter 10.6 cm), and the cup was covered with a 16 mesh nylon gauze. The polyethylene cup was arranged on a bottom of a chamber for a test (bottom surface: 46 cm×46 cm, height: 70 cm). From a height of 30 cm from an upper surface of the polyethylene cup, 0.5 ml of the drug solution for a test was sprayed using a spray gun (spraying pressure 0.4 kg/cm^2). After spraying, the cup was immediately taken out from the chamber for a test, the number of knocked down vermin was counted for 15 minutes with time, and a knockdown ratio was obtained. The knockdown ratio was calculated by the following expression.
as §2

Adoxophyesoranafasciata = test: Test Example 8: apple seedling spray test on first instar larvae of Adoxophyesoranafasciata; details: first instar larvae of Adoxophyesoranafasciata on apple seedlings; 500 ppm spray, 20 ml; seven days after spraying
Procedure: A formulation of the present amide compound (9) prepared in accordance with Formulation Example 15 was diluted with water so that the active ingredient concentration became 500 ppm, to prepare a spray solution for a test. On the other hand, 20 ml of the spray solution for a test was spraying-treated on each of apple seedlings (28 days after seeding, tree height about 15 cm) planted in a plastic cup. After the drug solution which had spray-treated on the apple was air-dried to an extent that the drug solution was dried, about 30 first instar larvae of Adoxophyesoranafasciata were released. Seven days after spraying, the number of live vermin on an apple seedling was investigated, and a controlling value was obtained according to the following expression. Controlling value (%)={1−(Cb×Tai)/(Cai×Tb)}×100 In addition, letters in the expression indicate the following meanings. Cb: Number of vermin before treatment of non-treated section Cai: Number of vermin at observation of non-treated section Tb: Number of vermin before treatment of treated-section Tai: Number of vermin at observation of treated-section

Spodopteralitura = test: Test Example 7: cabbage spray test on fourth instar larvae of Spodopteralitura; details: 500 ppm spray, 20 ml/cup, after 4 days
Procedure: A formulation containing the present amide compound (25) prepared in accordance with Formulation Example 15 was diluted with water so that active ingredient concentration became 500 ppm, to preparer a spray solution for a test. On the other hand, a cabbage was planted in a polyethylene cup, and grown until a third true leaf or a fourth true leaf developed. On the cabbage, the spray solution for a test was sprayed at a rate of 20 ml/cup. After the drug solution which had been spraying-treated on the cabbage was dried, ten fourth instar larvae of Spodopteralitura were parasitized. The number of live vermin of Spodopteralitura on a cabbage leaf was investigated after 4 days, and a controlling value was obtained according to the following expression. Controlling value (%)={1−(Cb×Tai)/(Cai×Tb)}×100 In addition, letters in the equation represent the following meanings. Cb: Number of vermin before treatment of non-treated section Cai: Number of vermin at observation of non-treated section Tb: Number of vermin before treatment of treated-section Tai: Number of vermin at observation of treated-section

SMILES | pest or weed control at 2 % strength (Blattella germanica) [%] | pest or weed control at 0.1 % strength (Culexpipienspallens) [%] | controlling value (Adoxophyesoranafasciata) [%] | controlling value (Spodopteralitura) [%]
O=C(NCC1CCOC1)C1=COC(COCc2ccccc2)CC1 (stereo not drawn) | ≥ 80 | – | – | –
CCCCC1CC(C(=O)NCC2CCOC2)=NO1 (stereo not drawn) [present amide compound (1), N-(tetrahydrofuran-3-ylmethyl)-5-butyl-4,5-dihydroisoxazole-3-carboxamide] | ≥ 80 | ≥ 80 | – | –
CCCCCC1CC(C(=O)NCC2CCOC2)=NO1 (stereo not drawn) [present amide compound (2), N-(tetrahydrofuran-3-ylmethyl)-5-pentyl-4,5-dihydroisoxazole-3-carboxyamide] | ≥ 80 | ≥ 80 | – | –
O=C(NCC1CCOC1)C1=NOC(CCc2ccccc2)C1 (stereo not drawn) [present amide compound (4), N-(tetrahydrofuran-3-ylmethyl)-5-phenethyl-4,5-dihydroisoxazole-3-carboxamide] | ≥ 80 | ≥ 80 | – | –
O=C(NCC1CCOC1)C1=NOC(COc2ccccc2)C1 (stereo not drawn) [present amide compound (5), N-(tetrahydrofran-3-ylmethyl)-5-(phenoxymethyl)-4,5-dihydro isoxazole-3-carboxamide] | – | ≥ 80 | – | –
O=C(NCC1CCOC1)C1=NOC(CCOc2ccccc2)C1 (stereo not drawn) [present amide compound (6), N-(tetrahydrofran-3-ylmethyl)-5-(2-phenoxyethyl)-4,5-dihydroisoxazole-3-carboxamide] | – | ≥ 80 | – | –
O=C(NCC1CCOC1)C1=NOC(CCCOc2ccccc2)C1 (stereo not drawn) [present amide compound (7), N-(tetrahydrofran-3-ylmethyl)-5-(3-phenoxypropyl)-4,5-dihydroisoxazole-3-carboxamide] | – | ≥ 80 | – | –
O=C(NCC1CCOC1)C1=NOC(CCCCOc2ccccc2)C1 (stereo not drawn) [present amide compound (8), N-(tetrahydrofuran-3-ylmethyl)-5-(4-phenoxybutyl)-4,5-dihydroisoxazole-3-carboxamide] | ≥ 80 | ≥ 80 | – | –
O=C(NCC1CCOC1)C1=NOC(CCCCCOc2ccccc2)C1 (stereo not drawn) [present amide compound (9), N-(tetrahydrofuran-3-ylmethyl)-5-(5-phenoxypentyl)-4,5-dihydroisoxazole-3-carboxamide] | – | ≥ 80 | 100 | –
O=C(NCC1CCOC1)C1=NOC(CCCCCCOc2ccccc2)C1 (stereo not drawn) [present amide compound (10), N-(tetrahydrofuran-3-ylmethyl)-5-(6-phenoxyhexyl)-4,5-dihydroisoxazole-3-carboxamide] | – | ≥ 80 | – | –
O=C(NCC1CCOC1)C1=NOC(CCOCc2ccccc2)C1 (stereo not drawn) [present amide compound (12), N-(tetrahydrofuran-3-ylmethyl)-5-(2-benzyloxyethyl)-4,5-dihydroisoxazole-3-carboxamide] | ≥ 80 | ≥ 80 | – | –
O=C(NCC1CCOC1)C1=NOC(CCCOCc2ccccc2)C1 (stereo not drawn) [present amide compound (13), N-(tetrahydrofuran-3-ylmethyl)-5-(3-benzyloxypropyl)-4,5-dihydroisoxazole-3-carboxamide] | ≥ 80 | ≥ 80 | – | –
O=C(NCC1CCOC1)C1=NOC(CCCCOCc2ccccc2)C1 (stereo not drawn) [present amide compound (14), N-(tetrahydrofuran-3-ylmethyl)-5-(4-benzyloxybutyl)-4,5-dihydroisoxazole-3-carboxamide] | ≥ 80 | ≥ 80 | – | –
O=C(NCC1CCOC1)C1=NOC(CCCCCOCc2ccccc2)C1 (stereo not drawn) [present amide compound (15), N-(tetrahydrofuran-3-ylmethyl)-5-(5-benzyloxypentyl)-4,5-dihydroisoxazole-3-carboxamide] | ≥ 80 | ≥ 80 | – | –
O=C(NCC1CCOC1)C1=NOC(CCCCCCOCc2ccccc2)C1 (stereo not drawn) [present amide compound (16), N-(tetrahydrofuran-3-ylmethyl)-5-(6-benzyloxyhexyl)-4,5-dihydroisoxazole-3-carboxamide] | ≥ 80 | ≥ 80 | – | –
O=C(NCC1CCOC1)C1=NOC(CCCOCCc2ccccc2)C1 (stereo not drawn) [present amide compound (18), N-(tetrahydrofuran-3-ylmethyl)-5-(3-phenethyloxypropyl)-4,5-dihydroisoxazole-3-carboxamide] | ≥ 80 | ≥ 80 | – | –
O=C(NCC1CCOC1)C1=NOC(COc2ccc3ccccc3c2)C1 (stereo not drawn) [present amide compound (19), N-(tetrahydrofuran-3-ylmethyl)-5-(2-naphthyloxymethyl)-4,5-dihydroisoxazole-3-carboxamide] | – | ≥ 80 | – | –
O=C(NCC1CCOC1)C1=NOC(COCc2ccc3ccccc3c2)C1 (stereo not drawn) [present amide compound (20), N-(tetrahydrofuran-3-ylmethyl)-5-(2-naphthylmethyloxymethyl)-4,5-dihydroisoxazole-3-carboxamide] | ≥ 80 | – | – | –
O=C(NCC1CCOC1)C1=NOC(CCCOCc2ccc3ccccc3c2)C1 (stereo not drawn) [present amide compound (21), N-(tetrahydrofuran-3-ylmethyl)-5-(2-naphthylmethyloxypropyl)-4,5-dihydroisoxazole-3-carboxamide] | – | ≥ 80 | – | –
CC1C(C(=O)NCC2CCOC2)=NOC1COc1ccccc1 (stereo not drawn) [present amide compound (22), N-(tetrahydrofuran-3-ylmethyl)-4-methyl-5-phenoxymethyl-4,5-dihydroisoxazole-3-carboxamide] | – | ≥ 80 | – | –
O=C(NCC1CCOC1)C1=NOC(COc2ccccc2)CC1 (stereo not drawn) [present amide compound (24), N-(tetrahydrofuran-3-ylmethyl)-6-phenoxymethyl-5,6-dihydro-4H-[1,2]oxazine-3-carboxamide] | ≥ 80 | ≥ 80 | – | –
O=C(NCC1CCOC1)C1=NOC(COc2cccc(Cl)c2)CC1 (stereo not drawn) [present amide compound (25), N-(tetrahydrofuran-3-ylmethyl)-6-(3-chloro-phenoxymethyl)-5,6-dihydro-4H-[1,2]oxazine-3-carboxamide] | ≥ 80 | ≥ 80 | – | ≥ 80
O=C(NCC1CCOC1)C1=NOC(COCc2ccccc2)CC1 (stereo not drawn) [present amide compound (26), N-(tetrahydrofuran-3-ylmethyl)-6-benzyloxymethyl-5,6-dihydro-4H-[1,2]oxazine-3-carboxamide] | – | ≥ 80 | – | –
O=C(NCC1CCOC1)C1=COC(COc2ccccc2)CC1 (stereo not drawn) [present amide compound (27), N-(tetrahydrofuran-3-ylmethyl)-6-phenoxymethyl-5,6-dihydro-4H-pyrane-3-carboxamide] | ≥ 80 | ≥ 80 | – | –
